In article PMC4416304, “Nickel quercetinase, a “promiscuous” metalloenzyme: metal incorporation and metal ligand substitution studies” (BMC Biochemistry, 2015):
Numbering of substitutions follows the chain as printed.

Assays:
Test in all cases: intrinsic protein fluorescence titration
Assay type in all cases: binding
[1] = biological target: T1, QueD (Ni-QueD; Streptomyces quercetinase) (Streptomyces sp. FLA, UniProt A2VA43, H69A)
T1 construct: C-terminal StrepII tag kept (pET23a-queD-Strep), E. coli BL21(DE3) pLysS grown with Ni2+; monocupin, native enzyme a dimer
T1 sequence (A2VA43 1-186 H69A): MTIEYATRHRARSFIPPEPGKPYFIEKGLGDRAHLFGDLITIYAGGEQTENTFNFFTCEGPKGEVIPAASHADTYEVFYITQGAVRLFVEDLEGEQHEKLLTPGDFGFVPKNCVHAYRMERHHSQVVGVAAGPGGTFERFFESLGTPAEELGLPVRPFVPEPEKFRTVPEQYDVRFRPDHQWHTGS
From the text: (§1) intrinsic protein fluorescence titration on QueD (Ni-QueD; Streptomyces quercetinase)

[2] = biological target: T2, QueD (Ni-QueD; Streptomyces quercetinase) (Streptomyces sp. FLA, UniProt A2VA43, E76H)
T2 construct: C-terminal StrepII tag kept (pET23a-queD-Strep), E. coli BL21(DE3) pLysS grown with Ni2+; monocupin, native enzyme a dimer
T2 sequence (A2VA43 1-186 E76H): T1 sequence (A2VA43 1-186 H69A) with A69H, E76H
From the text: as §1

[3] = biological target: T3, QueD (Ni-QueD; Streptomyces quercetinase) (Streptomyces sp. FLA, UniProt A2VA43, H115A)
T3 construct: C-terminal StrepII tag kept (pET23a-queD-Strep), E. coli BL21(DE3) pLysS grown with Ni2+; monocupin, native enzyme a dimer
T3 sequence (A2VA43 1-186 H115A): T1 sequence (A2VA43 1-186 H69A) with A69H, H115A
From the text: as §1

[4] = biological target: T4, QueD (Ni-QueD; Streptomyces quercetinase) (Streptomyces sp. FLA, UniProt A2VA43, E76D)
T4 construct: C-terminal StrepII tag kept (pET23a-queD-Strep), E. coli BL21(DE3) pLysS grown with Ni2+; monocupin, native enzyme a dimer
T4 sequence (A2VA43 1-186 E76D): T1 sequence (A2VA43 1-186 H69A) with A69H, E76D
From the text: as §1

[5] = biological target: T5, QueD (Ni-QueD; Streptomyces quercetinase) (Streptomyces sp. FLA, UniProt A2VA43, H71A)
T5 construct: C-terminal StrepII tag kept (pET23a-queD-Strep), E. coli BL21(DE3) pLysS grown with Ni2+; monocupin, native enzyme a dimer
T5 sequence (A2VA43 1-186 H71A): T1 sequence (A2VA43 1-186 H69A) with A69H, H71A
From the text: as §1

[6] = biological target: T6, QueD (Ni-QueD; Streptomyces quercetinase) (Streptomyces sp. FLA, UniProt A2VA43)
T6 construct: C-terminal StrepII tag kept (pET23a-queD-Strep), E. coli BL21(DE3) pLysS grown with Ni2+; monocupin, native enzyme a dimer
T6 sequence (A2VA43 1-186): T1 sequence (A2VA43 1-186 H69A) with A69H
From the text: intrinsic protein fluorescence titration on QueD (Ni-QueD; Streptomyces quercetinase) | The K D value of the complex of Ni-QueD with quercetin

Compound `O=c1c(O)c(-c2ccc(O)c(O)c2)oc2cc(O)cc(O)c12` [quercetin] has a Kd [1] of 3.1 µM, a Kd [2] of 1.3 µM and a Kd [3] of 2.6 µM. It also gave a Kd [4] of 4 µM, a Kd [5] of 10.4 µM and a Kd [6] of 10.1 ± 2.9 µM.
